One assay concerns U251-MG cells. Description: CCK-8 IC50 determination in U251-MG cells with or without GLUT3 OE. It is filed as cell-based, human. The following applies: GLUT3 OE vs control, CCK-8, 24 h drug treatment. The procedure:
(§1) The GBM cell line was seeded into a 96-well plate at a density of 5 × 10^3 cells per well and incubated at 37 °C in a humidified atmosphere containing 5% CO2 overnight. […] Following 24 h of drug treatment, 10 µL of CCK-8 reagent was added to each well, and the cells were incubated for an additional 1 h at 37 °C. The absorbance was then measured at 450 nm using a microplate reader.
(§2) In this study, the experimental groups were designated as Group A (cells treated with temozolomide (TMZ) or capecitabine (CAPE)), the control group as Group B (cells treated with DMSO), and the blank control group as Group C ([…]). The cell viability rate was calculated using the formula: (A-C)/(B-C) × 100%, where A, B, and C represent the absorbance values of Group A, Group B, and Group C, respectively.

In a further assay the test system is U87-MG cells. Description: CCK-8 IC50 determination in U87-MG cells with or without GLUT3 KD. It is filed as cell-based, human. The conditions noted are these: GLUT3 KD vs control, CCK-8, 24 h drug treatment. The procedure: as §1, §2

Data on two compounds can be found in publication PMC12354831 (Cell Death Discovery, 2025).

Structures are written as SMILES.

On to `Nc1ccn([C@@H]2O[C@H](CO)[C@@H](O)C2(F)F)c(=O)n1` [GEM, gemcitabine], for which the “reduction of IC50 in GLUT3 overexpressing cells compared to control cells” value in the assay on U251-MG cells was ~ 81.7%. In the assay with U87-MG cells, the “fold increase of IC50 on GLUT3 knockdown” value was ~ 1.6 fold.
For `Nc1ccn([C@@H]2O[C@H](CO)[C@@H](O)[C@@H]2O)c(=O)n1` [cytarabine], the “fold increase of IC50 on GLUT3 knockdown” value in the assay on U87-MG cells is reported as 4.3 fold.
